Reference: ChEMBL document CHEMBL4507276 (2021)

Assays:
[1] = biological target: Alpha-2C adrenergic receptor (Homo sapiens) (UniProt P18825); settings: Compound concentration 10.0 uM
[2] = biological target: Mitogen-activated protein kinase kinase kinase 14 (Homo sapiens) (UniProt Q99558); experiment: MAP3K14 Invitrogen selectivity data (BI); settings: Compound concentration 3.0 uM
[3] = biological target: Cholecystokinin receptor type A (Homo sapiens) (UniProt P32238); experiment: CCKA/H Cerep selectivity data (BI); settings: Compound concentration 20.0 uM
Sequence of Cholecystokinin receptor type A (Homo sapiens) (P32238 whole entry): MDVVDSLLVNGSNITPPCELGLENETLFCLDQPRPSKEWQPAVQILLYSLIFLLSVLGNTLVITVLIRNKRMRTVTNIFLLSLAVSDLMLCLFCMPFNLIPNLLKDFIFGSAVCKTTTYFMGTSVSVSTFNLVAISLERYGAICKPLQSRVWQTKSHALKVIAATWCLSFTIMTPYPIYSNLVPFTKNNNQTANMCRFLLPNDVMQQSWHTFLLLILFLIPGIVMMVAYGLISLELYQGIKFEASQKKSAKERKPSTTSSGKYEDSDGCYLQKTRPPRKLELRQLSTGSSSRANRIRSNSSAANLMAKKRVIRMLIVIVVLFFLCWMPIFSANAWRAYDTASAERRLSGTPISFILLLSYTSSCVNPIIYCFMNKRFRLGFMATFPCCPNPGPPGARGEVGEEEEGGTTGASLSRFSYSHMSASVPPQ

[4] = biological target: Glutamate receptor ionotropic, NMDA 2A (Rattus norvegicus) (UniProt Q00959); experiment: NMDAPHSI/R Eurofins-Panlabs selectivity data (BI); settings: Compound concentration 10.0 uM
Sequence of Glutamate receptor ionotropic, NMDA 2A (Rattus norvegicus) (Q00959 23-1464 limits assumed): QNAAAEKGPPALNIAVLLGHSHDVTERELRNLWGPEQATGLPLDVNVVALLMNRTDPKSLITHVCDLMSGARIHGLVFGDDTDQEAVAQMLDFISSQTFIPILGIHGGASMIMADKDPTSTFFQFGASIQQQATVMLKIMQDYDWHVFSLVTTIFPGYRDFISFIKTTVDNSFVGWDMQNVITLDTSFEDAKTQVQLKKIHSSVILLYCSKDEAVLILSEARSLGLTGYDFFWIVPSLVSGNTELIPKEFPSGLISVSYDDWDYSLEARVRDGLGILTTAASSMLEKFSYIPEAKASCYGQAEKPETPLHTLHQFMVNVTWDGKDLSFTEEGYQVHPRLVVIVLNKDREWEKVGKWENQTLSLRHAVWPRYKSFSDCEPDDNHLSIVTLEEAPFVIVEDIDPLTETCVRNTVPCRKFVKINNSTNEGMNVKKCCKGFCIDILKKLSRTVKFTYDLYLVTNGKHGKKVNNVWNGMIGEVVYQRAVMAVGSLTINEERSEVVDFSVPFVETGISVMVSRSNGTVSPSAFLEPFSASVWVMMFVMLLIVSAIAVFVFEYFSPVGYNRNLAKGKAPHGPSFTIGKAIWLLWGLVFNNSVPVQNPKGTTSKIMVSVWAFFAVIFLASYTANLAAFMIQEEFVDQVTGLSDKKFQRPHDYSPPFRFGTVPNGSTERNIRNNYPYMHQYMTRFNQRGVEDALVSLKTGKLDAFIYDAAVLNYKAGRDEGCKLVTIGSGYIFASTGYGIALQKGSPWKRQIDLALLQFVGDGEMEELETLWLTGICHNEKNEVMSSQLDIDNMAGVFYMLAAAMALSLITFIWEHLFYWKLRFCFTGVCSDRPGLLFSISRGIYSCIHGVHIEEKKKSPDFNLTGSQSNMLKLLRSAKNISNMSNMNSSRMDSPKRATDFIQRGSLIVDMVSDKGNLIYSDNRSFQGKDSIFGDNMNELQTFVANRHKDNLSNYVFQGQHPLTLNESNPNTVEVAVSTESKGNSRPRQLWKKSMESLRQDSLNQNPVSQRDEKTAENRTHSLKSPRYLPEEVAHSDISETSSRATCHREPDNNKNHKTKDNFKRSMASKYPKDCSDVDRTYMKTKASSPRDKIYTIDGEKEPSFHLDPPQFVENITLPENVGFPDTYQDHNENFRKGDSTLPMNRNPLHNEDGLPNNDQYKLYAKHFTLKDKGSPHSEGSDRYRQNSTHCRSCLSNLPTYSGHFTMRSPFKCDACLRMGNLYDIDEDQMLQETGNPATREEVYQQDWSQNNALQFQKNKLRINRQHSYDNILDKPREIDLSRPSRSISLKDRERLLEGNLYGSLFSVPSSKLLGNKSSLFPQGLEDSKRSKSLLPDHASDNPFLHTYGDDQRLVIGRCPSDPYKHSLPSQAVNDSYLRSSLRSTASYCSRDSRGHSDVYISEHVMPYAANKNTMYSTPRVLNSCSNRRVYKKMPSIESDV

[5] = biological target: Casein kinase II subunit alpha' (Homo sapiens) (UniProt P19784); experiment: CSNK2A2 Invitrogen selectivity data (BI); settings: Compound concentration 3.0 uM
[6] = biological target: T1, Serine/threonine-protein kinase D2 (Homo sapiens) (UniProt Q9BZL6); experiment: PRKD2 Invitrogen selectivity data (BI); settings: Compound concentration 3.0 uM
T1 sequence (whole entry): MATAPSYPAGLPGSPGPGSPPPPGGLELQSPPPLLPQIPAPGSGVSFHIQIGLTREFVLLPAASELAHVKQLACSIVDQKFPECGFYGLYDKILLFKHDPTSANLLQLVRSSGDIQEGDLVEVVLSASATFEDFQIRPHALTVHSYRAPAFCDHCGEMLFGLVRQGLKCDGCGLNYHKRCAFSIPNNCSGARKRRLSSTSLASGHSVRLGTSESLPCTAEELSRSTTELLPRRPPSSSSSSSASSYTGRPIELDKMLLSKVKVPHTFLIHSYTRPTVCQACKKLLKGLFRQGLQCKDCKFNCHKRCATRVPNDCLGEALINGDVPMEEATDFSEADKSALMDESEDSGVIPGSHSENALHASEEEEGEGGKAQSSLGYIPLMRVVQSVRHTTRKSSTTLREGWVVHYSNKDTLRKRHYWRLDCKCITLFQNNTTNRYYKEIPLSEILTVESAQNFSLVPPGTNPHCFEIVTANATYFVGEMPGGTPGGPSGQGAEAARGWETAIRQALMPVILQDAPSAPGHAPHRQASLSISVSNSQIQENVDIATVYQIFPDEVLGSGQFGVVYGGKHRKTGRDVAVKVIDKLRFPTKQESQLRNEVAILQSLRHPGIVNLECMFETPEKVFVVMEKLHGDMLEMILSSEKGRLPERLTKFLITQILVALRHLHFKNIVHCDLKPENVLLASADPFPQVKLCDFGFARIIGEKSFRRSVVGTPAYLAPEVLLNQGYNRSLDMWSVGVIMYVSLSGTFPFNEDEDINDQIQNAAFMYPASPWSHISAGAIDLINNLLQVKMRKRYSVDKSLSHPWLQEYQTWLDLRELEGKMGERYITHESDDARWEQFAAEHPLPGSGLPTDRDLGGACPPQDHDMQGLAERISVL

[7] = biological target: D(1A) dopamine receptor (Homo sapiens) (UniProt P21728); experiment: D1/HU Eurofins-Panlabs selectivity data (BI); settings: Compound concentration 10.0 uM
Sequence of D(1A) dopamine receptor (Homo sapiens) (P21728 whole entry): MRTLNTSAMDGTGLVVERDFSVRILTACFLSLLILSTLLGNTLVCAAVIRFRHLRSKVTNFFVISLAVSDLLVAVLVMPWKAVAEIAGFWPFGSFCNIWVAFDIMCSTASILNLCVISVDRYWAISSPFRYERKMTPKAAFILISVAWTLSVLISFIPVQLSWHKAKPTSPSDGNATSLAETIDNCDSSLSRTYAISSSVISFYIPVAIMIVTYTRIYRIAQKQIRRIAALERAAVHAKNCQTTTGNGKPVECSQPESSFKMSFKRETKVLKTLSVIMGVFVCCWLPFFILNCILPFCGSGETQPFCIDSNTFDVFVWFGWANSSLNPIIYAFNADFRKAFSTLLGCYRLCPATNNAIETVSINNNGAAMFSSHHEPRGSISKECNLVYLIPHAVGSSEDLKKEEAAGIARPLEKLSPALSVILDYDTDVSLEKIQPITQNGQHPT

[8] = biological target: T2, MAP/microtubule affinity-regulating kinase 4 (Homo sapiens) (UniProt Q96L34); experiment: MARK4 Invitrogen selectivity data (BI); settings: Compound concentration 3.0 uM
T2 sequence (whole entry): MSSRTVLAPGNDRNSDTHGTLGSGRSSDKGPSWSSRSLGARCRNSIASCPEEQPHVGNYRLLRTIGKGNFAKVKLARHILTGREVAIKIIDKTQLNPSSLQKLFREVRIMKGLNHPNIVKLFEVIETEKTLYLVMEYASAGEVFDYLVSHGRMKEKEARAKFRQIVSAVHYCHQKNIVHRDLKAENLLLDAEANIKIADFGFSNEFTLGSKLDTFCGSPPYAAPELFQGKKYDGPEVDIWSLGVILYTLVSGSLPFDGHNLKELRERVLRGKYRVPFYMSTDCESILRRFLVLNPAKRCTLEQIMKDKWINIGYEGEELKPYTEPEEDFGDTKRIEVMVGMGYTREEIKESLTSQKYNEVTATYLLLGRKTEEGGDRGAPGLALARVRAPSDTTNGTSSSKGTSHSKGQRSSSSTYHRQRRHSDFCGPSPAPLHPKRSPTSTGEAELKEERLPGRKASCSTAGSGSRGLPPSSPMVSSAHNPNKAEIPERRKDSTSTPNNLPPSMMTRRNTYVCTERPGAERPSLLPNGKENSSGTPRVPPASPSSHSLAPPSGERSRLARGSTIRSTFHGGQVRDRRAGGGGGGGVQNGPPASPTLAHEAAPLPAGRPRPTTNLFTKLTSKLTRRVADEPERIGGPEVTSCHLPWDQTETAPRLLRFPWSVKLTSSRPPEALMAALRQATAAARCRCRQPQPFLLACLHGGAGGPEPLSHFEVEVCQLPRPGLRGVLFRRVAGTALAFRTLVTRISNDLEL

[9] = biological target: G protein-coupled receptor kinase 4 (Homo sapiens) (UniProt P32298); experiment: GRK4 Invitrogen selectivity data (BI); settings: Compound concentration 3.0 uM
Sequence of G protein-coupled receptor kinase 4 (Homo sapiens) (P32298 whole entry, looked up): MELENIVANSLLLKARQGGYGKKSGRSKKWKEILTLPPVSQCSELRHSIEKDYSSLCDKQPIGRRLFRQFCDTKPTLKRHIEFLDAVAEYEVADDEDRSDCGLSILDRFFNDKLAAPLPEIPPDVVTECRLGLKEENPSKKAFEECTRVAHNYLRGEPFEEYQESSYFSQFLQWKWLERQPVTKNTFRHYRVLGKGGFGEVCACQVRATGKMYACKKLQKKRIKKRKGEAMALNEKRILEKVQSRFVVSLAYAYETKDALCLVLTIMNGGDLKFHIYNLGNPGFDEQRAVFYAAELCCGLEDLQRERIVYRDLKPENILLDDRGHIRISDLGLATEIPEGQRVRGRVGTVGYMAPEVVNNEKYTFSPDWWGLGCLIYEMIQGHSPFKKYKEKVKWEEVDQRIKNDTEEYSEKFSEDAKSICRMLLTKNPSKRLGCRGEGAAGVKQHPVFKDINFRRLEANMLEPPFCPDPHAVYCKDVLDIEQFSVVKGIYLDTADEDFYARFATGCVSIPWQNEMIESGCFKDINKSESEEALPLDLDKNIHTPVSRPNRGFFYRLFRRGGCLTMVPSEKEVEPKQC

[10] = biological target: T3, Calcium/calmodulin-dependent protein kinase type IV (Homo sapiens) (UniProt Q16566); experiment: CAMK4 Invitrogen selectivity data (BI); settings: Compound concentration 3.0 uM
T3 sequence (whole entry): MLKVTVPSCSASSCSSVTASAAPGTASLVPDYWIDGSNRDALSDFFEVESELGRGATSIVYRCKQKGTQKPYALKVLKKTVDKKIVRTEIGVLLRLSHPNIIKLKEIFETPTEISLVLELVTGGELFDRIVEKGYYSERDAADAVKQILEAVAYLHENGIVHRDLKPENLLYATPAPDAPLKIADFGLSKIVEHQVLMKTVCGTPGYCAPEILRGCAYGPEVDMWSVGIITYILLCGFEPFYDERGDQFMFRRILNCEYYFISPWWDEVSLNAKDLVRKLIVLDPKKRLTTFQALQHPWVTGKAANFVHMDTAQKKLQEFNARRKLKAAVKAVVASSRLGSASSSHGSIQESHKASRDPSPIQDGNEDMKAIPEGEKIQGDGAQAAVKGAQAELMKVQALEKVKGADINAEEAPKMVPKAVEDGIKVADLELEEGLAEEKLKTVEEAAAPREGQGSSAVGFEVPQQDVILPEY

[11] = biological target: Protein kinase C beta type (Homo sapiens) (UniProt P05771); experiment: PRKCB2 Invitrogen selectivity data (BI); settings: Compound concentration 3.0 uM
Sequence of Protein kinase C beta type (Homo sapiens) (P05771 2-671 limits assumed): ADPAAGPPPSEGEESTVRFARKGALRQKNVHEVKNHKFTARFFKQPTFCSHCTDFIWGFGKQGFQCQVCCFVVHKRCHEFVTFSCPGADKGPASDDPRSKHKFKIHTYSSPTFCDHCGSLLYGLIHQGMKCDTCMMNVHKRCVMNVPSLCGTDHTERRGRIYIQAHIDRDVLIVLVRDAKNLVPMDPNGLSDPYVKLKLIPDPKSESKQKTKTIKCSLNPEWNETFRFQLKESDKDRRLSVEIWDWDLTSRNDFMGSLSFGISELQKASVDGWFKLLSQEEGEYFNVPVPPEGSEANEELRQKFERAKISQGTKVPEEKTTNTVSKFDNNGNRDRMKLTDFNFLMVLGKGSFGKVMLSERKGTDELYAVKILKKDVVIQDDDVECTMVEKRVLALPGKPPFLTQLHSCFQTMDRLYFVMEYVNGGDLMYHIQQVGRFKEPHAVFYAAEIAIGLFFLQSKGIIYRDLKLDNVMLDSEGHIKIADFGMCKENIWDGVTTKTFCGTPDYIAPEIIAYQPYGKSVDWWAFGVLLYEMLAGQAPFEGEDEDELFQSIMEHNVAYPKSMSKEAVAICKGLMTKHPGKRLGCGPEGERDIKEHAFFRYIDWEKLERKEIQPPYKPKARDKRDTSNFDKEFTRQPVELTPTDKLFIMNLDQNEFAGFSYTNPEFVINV

[12] = biological target: D(2) dopamine receptor (Homo sapiens) (UniProt P14416); experiment: D2S/HU Eurofins-Panlabs selectivity data (BI); settings: Compound concentration 10.0 uM
Sequence of D(2) dopamine receptor (Homo sapiens) (P14416 whole entry): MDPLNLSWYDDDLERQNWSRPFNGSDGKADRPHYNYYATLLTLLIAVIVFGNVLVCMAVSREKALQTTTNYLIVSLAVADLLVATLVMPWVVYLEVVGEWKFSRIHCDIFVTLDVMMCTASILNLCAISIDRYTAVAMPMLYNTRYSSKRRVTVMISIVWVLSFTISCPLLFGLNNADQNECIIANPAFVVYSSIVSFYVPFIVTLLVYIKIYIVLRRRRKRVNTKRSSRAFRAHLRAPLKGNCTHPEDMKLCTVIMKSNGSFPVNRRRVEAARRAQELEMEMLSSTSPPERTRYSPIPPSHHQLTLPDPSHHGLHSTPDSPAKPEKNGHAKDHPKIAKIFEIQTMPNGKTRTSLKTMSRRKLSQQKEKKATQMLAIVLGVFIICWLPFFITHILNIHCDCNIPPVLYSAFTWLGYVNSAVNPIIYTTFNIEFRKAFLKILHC

Cricetinae = experiment: ML2(MT3) Cerep selectivity data (BI); settings: Compound concentration 20.0 uM

Sequence of Mitogen-activated protein kinase kinase kinase 14 (Homo sapiens) (Q99558 whole entry, looked up): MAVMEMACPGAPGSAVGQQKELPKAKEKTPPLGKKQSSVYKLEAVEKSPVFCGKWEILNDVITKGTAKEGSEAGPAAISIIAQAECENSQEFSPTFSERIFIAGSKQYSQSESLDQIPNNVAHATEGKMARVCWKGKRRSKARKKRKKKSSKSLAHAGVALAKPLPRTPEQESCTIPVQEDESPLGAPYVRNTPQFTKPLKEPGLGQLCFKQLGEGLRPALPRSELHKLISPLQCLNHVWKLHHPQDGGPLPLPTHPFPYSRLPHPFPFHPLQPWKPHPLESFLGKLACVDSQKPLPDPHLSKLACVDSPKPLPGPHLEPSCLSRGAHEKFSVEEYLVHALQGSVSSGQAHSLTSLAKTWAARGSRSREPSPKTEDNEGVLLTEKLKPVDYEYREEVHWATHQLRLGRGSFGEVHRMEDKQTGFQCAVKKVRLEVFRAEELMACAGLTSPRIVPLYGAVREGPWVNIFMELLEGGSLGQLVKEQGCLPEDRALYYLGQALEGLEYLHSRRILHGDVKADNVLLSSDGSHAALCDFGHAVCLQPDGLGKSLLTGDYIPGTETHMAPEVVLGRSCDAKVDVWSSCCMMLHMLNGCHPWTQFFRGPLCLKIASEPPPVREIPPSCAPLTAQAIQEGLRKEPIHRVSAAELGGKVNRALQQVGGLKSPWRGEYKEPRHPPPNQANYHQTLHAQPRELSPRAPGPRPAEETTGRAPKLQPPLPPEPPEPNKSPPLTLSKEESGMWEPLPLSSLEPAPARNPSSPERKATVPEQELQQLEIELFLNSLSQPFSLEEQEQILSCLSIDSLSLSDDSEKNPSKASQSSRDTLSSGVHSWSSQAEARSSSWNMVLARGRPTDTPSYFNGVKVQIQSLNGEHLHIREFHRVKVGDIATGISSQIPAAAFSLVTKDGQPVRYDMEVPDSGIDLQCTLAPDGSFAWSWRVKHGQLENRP

CN(C)C(=O)Cn1cc(-c2nc(C3(c4ccc(-c5cnc(N)nc5)cc4)CC3)no2)cn1 [BI 0153]
inactive: inhibition [1] 4.1%

CN(C)C(=O)Cn1cc(-c2nc([C@@](C)(c3ccc(-c4cnc(N)nc4)cc3)C3CC3)no2)cn1 [BI 665915]
inactive: residual activity [2] 98% | residual activity [3] 113% | residual activity [4] 111% | residual activity [5] 94.5% | residual activity [6] 95% | residual activity [7] 108% | residual activity [8] 104% | residual activity [9] 102% | residual activity [10] 86% | residual activity [11] 100% | residual activity [12] 94% | residual activity (Cricetinae) 70%
